Measurements: publication PMC3991330 (Structure(London, England:1993), 2014)

Key:
TIPΔD2 [1] = biological target: T1, TIPΔD2 (Methanopyrus kandleri, UniProt Q8TZC3, DEL143-290); assay: native nanoelectrospray ionization mass spectrometry; format: binding; conditions: tightly bound; co-purified from E. coli host
TIPΔD2 [2] = biological target: T1, TIPΔD2; assay: malachite green phosphate release ATPase assay; format: biochemical
mkTIP49 = mkTIP49 (Methanopyrus kandleri, UniProt Q8TZC3); assay: malachite green phosphate release ATPase assay; format: biochemical; conditions: optimum 75-80 °C
native MS = biological target: the molecule itself; assay: native MS

Nc1ncnc2c1ncn2[C@@H]1O[C@H](COP(=O)(O)OP(=O)(O)O)[C@@H](O)[C@H]1O [ADP]
native nanoelectrospray ionization mass spectrometry (TIPΔD2 [1]): Both full-length mkTIP49 and TIPΔD2 contain a tightly bound ADP cofactor

Nc1ncnc2c1ncn2[C@@H]1O[C@H](COP(=O)(O)OP(=O)(O)OP(=O)(O)O)[C@@H](O)[C@H]1O [ATP]
malachite green phosphate release ATPase assay (PiColorLock ALS) (TIPΔD2 [2]): deletion of D2 had a dramatic stimulating effect on the catalytic activity of mkTIP49
malachite green phosphate release ATPase assay (PiColorLock ALS) (mkTIP49): we measured the intrinsic ATPase activity of mkTIP49 and mutants thereof

B1: isolated mkTIP49 D2 insertion domain (TIPins, residues 124–290) (domain or fragment, Methanopyrus kandleri, UniProt Q8TZC3 124-290, looked up)
chain: VEFTETREVIEGKVESLEIERAKHPLSPYMEVPSGAIIELKTQDDHRRFKVPEEIAIQLVQAGVREGDVIQIDVESGHVTKLGRAKDALEEEEEELLGVHAVELPEGPVQKKKEIKRVVTLHDLDMANVRAGRLLGFREEEITDEIRQKVDERVQKMVDEGEASLVP
stoichiometry N (native MS): 2

B2: Methanopyrus kandleri TIP49 protein (mkTIP49), wild type, full length (enzyme, UniProt Q8TZC3 1-455, looked up)
chain: MVEIKEIGEVSTEETSPGAHSHITGLGLDENLKAKPVGDGLVGQEEAREAAGIVVEMVKQGRRAGHGLLLVGPPGTGKTAIAYGIARELGEDVPFVSISGSEIYGTNLSKTEFLQQAIRRAIGVEFTETREVIEGKVESLEIERAKHPLSPYMEVPSGAIIELKTQDDHRRFKVPEEIAIQLVQAGVREGDVIQIDVESGHVTKLGRAKDALEEEEEELLGVHAVELPEGPVQKKKEIKRVVTLHDLDMANVRAGRLLGFREEEITDEIRQKVDERVQKMVDEGEASLVPGVLFIDEAHMLDIEAFAFLNRSLEEEIAPILVMATNRAMAKVRGTDEEAPHGIPGDLLDRMLIARTRPFERHEIHEIIGIRARVQDIQLTDEAHEYLTDLGEEKSIRYATRLLEPARIVAEKEGSEVVEKKHVERVEEVFTDVSDSVEYMERMRRELPVMKYLTG
stoichiometry N (native MS): 12
